Tested on: 192522-019-R-J2-PDC complex tumor spheroid viability
Assay: Anticancer human tumor 192522-019-R-J2-PDC patient-derived colon adenocarcinoma cell line growth inhibition [POLQ]
Settings: for IC50: curve of first compound; for viability, T/C: stronger effect = lower value
Summary of the method: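 Patient-derived tumour cells were co-cultured with HUVEC and mesenchymal stem cells as multicellular spheroids at 37 °C. They were treated with POLQ inhibitors (novobiocin, ART-558, RP6685) alone or combined with other agents. Top concentrations were at or near clinical Cmax (otherwise 10 microM; SN-38 at 1 microM), decreasing in half-log steps.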

[1] = second compound 0.0316 µM, first compound 0.0316 µM
[2] = second compound 0.0316 µM, first compound 0.1 µM
[3] = second compound 0.0316 µM, first compound 0.316 µM
[4] = second compound 0.0316 µM, first compound 1 µM
[5] = second compound 0.0316 µM, first compound 3.16 µM
[6] = second compound 0.0316 µM, first compound 10 µM
[7] = second compound 0.1 µM, first compound 0.0316 µM
[8] = second compound 0.1 µM, first compound 0.1 µM
[9] = second compound 0.1 µM, first compound 0.316 µM
[10] = second compound 0.1 µM, first compound 1 µM
[11] = second compound 0.1 µM, first compound 3.16 µM
[12] = second compound 0.1 µM, first compound 10 µM
[13] = second compound 0.316 µM, first compound 0.0316 µM
[14] = second compound 0.316 µM, first compound 0.1 µM
[15] = second compound 0.316 µM, first compound 0.316 µM
[16] = second compound 0.316 µM, first compound 1 µM
[17] = second compound 0.316 µM, first compound 3.16 µM
[18] = second compound 0.316 µM, first compound 10 µM
[19] = second compound 1 µM, first compound 0.0316 µM
[20] = second compound 1 µM, first compound 0.1 µM
[21] = second compound 1 µM, first compound 0.316 µM
[22] = second compound 1 µM, first compound 1 µM
[23] = second compound 1 µM, first compound 3.16 µM
[24] = second compound 1 µM, first compound 10 µM
[25] = second compound 3.16 µM, first compound 0.0316 µM
[26] = second compound 3.16 µM, first compound 0.1 µM
[27] = second compound 3.16 µM, first compound 0.316 µM
[28] = second compound 3.16 µM, first compound 1 µM
[29] = second compound 3.16 µM, first compound 3.16 µM
[30] = second compound 3.16 µM, first compound 10 µM
[31] = second compound 10 µM, first compound 0.0316 µM
[32] = second compound 10 µM, first compound 0.1 µM
[33] = second compound 10 µM, first compound 0.316 µM
[34] = second compound 10 µM, first compound 1 µM
[35] = second compound 10 µM, first compound 3.16 µM
[36] = second compound 10 µM, first compound 10 µM
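Also: spheroids exposed to drugs for seven days before reading.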
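For viability, T/C in this document: 100% = DMSO vehicle control viability in luminescence.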

## C#Cc1c(F)ccc2cc(O)cc(-c3ncc4c(N5CC6CCC(C5)N6)nc(OCC56CCCN5CC(F)C6)nc4c3F)c12 (stereo unspecified) + Cc1cccc(N(C)C(=O)C2C(O)CCN2c2nc(C)cc(C(F)(F)F)c2C#N)c1
Second compound 0.0316 µM
  IC50: > 10 µM
Second compound 0.1 µM
  IC50: > 10 µM
Second compound 0.316 µM
  IC50: > 10 µM
Second compound 1 µM
  IC50: > 10 µM
Second compound 3.16 µM
  IC50: > 10 µM
Second compound 10 µM
  IC50: > 10 µM
[1]
  viability, T/C: 102%
[2]
  viability, T/C: 78.8%
[3]
  viability, T/C: 78.5%
[4]
  viability, T/C: 82.1%
[5]
  viability, T/C: 76.5%
[6]
  viability, T/C: 66.5%
[7]
  viability, T/C: 103%
[8]
  viability, T/C: 86.2%
[9]
  viability, T/C: 91.1%
[10]
  viability, T/C: 76%
[11]
  viability, T/C: 73.4%
[12]
  viability, T/C: 70.4%
[13]
  viability, T/C: 95%
[14]
  viability, T/C: 87.8%
[15]
  viability, T/C: 88.3%
[16]
  viability, T/C: 79.4%
[17]
  viability, T/C: 79.3%
[18]
  viability, T/C: 72.8%
[19]
  viability, T/C: 91.8%
[20]
  viability, T/C: 91.4%
[21]
  viability, T/C: 95%
[22]
  viability, T/C: 88.5%
[23]
  viability, T/C: 77.7%
[24]
  viability, T/C: 79.1%
[25]
  viability, T/C: 98.7%
[26]
  viability, T/C: 107%
[27]
  viability, T/C: 94.2%
[28]
  viability, T/C: 83%
[29]
  viability, T/C: 84.5%
[30]
  viability, T/C: 73.3%
[31]
  viability, T/C: 117%
[32]
  viability, T/C: 96.7%
[33]
  viability, T/C: 89.6%
[34]
  viability, T/C: 78.2%
[35]
  viability, T/C: 88.1%
[36]
  viability, T/C: 73.4%

## O=c1[nH]cc(F)c(=O)[nH]1 + Cc1cccc(N(C)C(=O)C2C(O)CCN2c2nc(C)cc(C(F)(F)F)c2C#N)c1
Second compound 0.0316 µM
  IC50: > 10 µM
Second compound 0.1 µM
  IC50: > 10 µM
Second compound 0.316 µM
  IC50: > 10 µM
Second compound 1 µM
  IC50: > 10 µM
Second compound 3.16 µM
  IC50: > 10 µM
Second compound 10 µM
  IC50: > 10 µM
[1]
  viability, T/C: 111%
[2]
  viability, T/C: 88.5%
[3]
  viability, T/C: 76.8%
[4]
  viability, T/C: 87.2%
[5]
  viability, T/C: 91.3%
[6]
  viability, T/C: 72.4%
[7]
  viability, T/C: 103%
[8]
  viability, T/C: 92.8%
[9]
  viability, T/C: 84.6%
[10]
  viability, T/C: 81.7%
[11]
  viability, T/C: 81%
[12]
  viability, T/C: 85.3%
[13]
  viability, T/C: 95.5%
[14]
  viability, T/C: 95.9%
[15]
  viability, T/C: 85%
[16]
  viability, T/C: 80.7%
[17]
  viability, T/C: 78%
[18]
  viability, T/C: 86.1%
[19]
  viability, T/C: 96.8%
[20]
  viability, T/C: 92.9%
[21]
  viability, T/C: 87.1%
[22]
  viability, T/C: 96.1%
[23]
  viability, T/C: 89%
[24]
  viability, T/C: 82.9%
[25]
  viability, T/C: 112%
[26]
  viability, T/C: 88.9%
[27]
  viability, T/C: 87.1%
[28]
  viability, T/C: 81.4%
[29]
  viability, T/C: 93.1%
[30]
  viability, T/C: 78.6%
[31]
  viability, T/C: 106%
[32]
  viability, T/C: 89.1%
[33]
  viability, T/C: 81.6%
[34]
  viability, T/C: 83.6%
[35]
  viability, T/C: 88.3%
[36]
  viability, T/C: 75.9%

## COc1cc2cc(C(=O)CCC(=O)O)sc2cc1OC + COC1C(OC(N)=O)C(O)C(Oc2ccc3c(O)c(NC(=O)c4ccc(O)c(CC=C(C)C)c4)c(=O)oc3c2C)OC1(C)C
Second compound 0.0316 µM
  IC50: > 10 µM
Second compound 0.1 µM
  IC50: > 10 µM
Second compound 0.316 µM
  IC50: > 10 µM
Second compound 1 µM
  IC50: > 10 µM
Second compound 3.16 µM
  IC50: > 10 µM
Second compound 10 µM
  IC50: > 10 µM
[1]
  viability, T/C: 101%
[2]
  viability, T/C: 94.3%
[3]
  viability, T/C: 97.7%
[4]
  viability, T/C: 101%
[5]
  viability, T/C: 102%
[6]
  viability, T/C: 91.9%
[7]
  viability, T/C: 110%
[8]
  viability, T/C: 98%
[9]
  viability, T/C: 96.9%
[10]
  viability, T/C: 97%
[11]
  viability, T/C: 94.9%
[12]
  viability, T/C: 106%
[13]
  viability, T/C: 105%
[14]
  viability, T/C: 88.7%
[15]
  viability, T/C: 98.6%
[16]
  viability, T/C: 105%
[17]
  viability, T/C: 96.9%
[18]
  viability, T/C: 105%
[19]
  viability, T/C: 105%
[20]
  viability, T/C: 97.7%
[21]
  viability, T/C: 104%
[22]
  viability, T/C: 111%
[23]
  viability, T/C: 105%
[24]
  viability, T/C: 101%
[25]
  viability, T/C: 103%
[26]
  viability, T/C: 103%
[27]
  viability, T/C: 107%
[28]
  viability, T/C: 105%
[29]
  viability, T/C: 114%
[30]
  viability, T/C: 96.9%
[31]
  viability, T/C: 102%
[32]
  viability, T/C: 88.7%
[33]
  viability, T/C: 109%
[34]
  viability, T/C: 109%
[35]
  viability, T/C: 112%
[36]
  viability, T/C: 101%

Source: PubChem BioAssay AID1963850 (Molecular Pharmacology Branch, DTP, NCI, 2024)
